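The compound was tested at five concentrations on cells cultured in 96-well plates, with a 48-hour exposure period. GI50 = concentration required for 50% inhibition of growth. TGI marks complete inhibition of growth.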
How the values were obtained:
Test in all cases: DTP human tumour cell line panel, 48 h
[1] = system: 786-0 renal
[2] = system: A498 renal
[3] = system: A549 NSCLC
[4] = system: ACHN renal
[5] = system: BT-549 breast
[6] = system: CAKI-1 renal
[7] = system: COLO 205 colon
[8] = system: DU-145 prostate
[9] = system: EKVX NSCLC
[10] = system: HCC-2998 colon
[11] = system: HCT-116 colon
[12] = system: HOP-62 NSCLC
[13] = system: HS 578T breast
[14] = system: HT29 colon
[15] = system: IGROV1 ovarian
[16] = system: K-562 leukemia
[17] = system: KM12 colon
[18] = system: LOX IMVI melanoma
[19] = system: M14 melanoma
[20] = system: MDA-MB-231 breast
[21] = system: MDA-MB-435
[22] = system: NCI-H226 lung
[23] = system: NCI-H522 lung
[24] = system: NCI/ADR-RES ovarian
[25] = system: OVCAR-5 ovarian
[26] = system: OVCAR-8 ovarian
[27] = system: PC-3 prostate
[28] = system: RXF 393 renal
[29] = system: SK-MEL-2 melanoma
[30] = system: SK-MEL-5 melanoma
[31] = system: SN12C renal
[32] = system: TK-10 renal
[33] = system: U251 CNS
[34] = system: UACC-257 melanoma
[35] = system: UACC-62 melanoma
[36] = system: UO-31 renal
[37] = system: CCRF-CEM leukemia
[38] = system: HCT-15 colon
[39] = system: HL-60(TB) leukemia
[40] = system: HOP-92 NSCLC
[41] = system: MALME-3M melanoma
[42] = system: MCF7 breast
[43] = system: MOLT-4 leukemia
[44] = system: NCI-H23 lung
[45] = system: NCI-H460 lung
[46] = system: OVCAR-3 ovarian
[47] = system: OVCAR-4 ovarian
[48] = system: RPMI-8226 leukemia
[49] = system: SF-268 CNS
[50] = system: SF-295 CNS
[51] = system: SF-539 CNS
[52] = system: SK-MEL-28 melanoma
[53] = system: SK-OV-3 ovarian
[54] = system: SNB-75 CNS
[55] = system: SR leukemia
[56] = system: SW-620 colon
[57] = system: T-47D breast
[58] = system: SNB-19 CNS

NC(N)=N/N=C/c1c(-c2ccc(Cl)c([N+](=O)[O-])c2)nc2sc3ccccc3n12
GI50 [1]: 0.951 µM
TGI [1]: 1.75 µM
GI50 [2]: 3.9 µM
TGI [2]: 11.2 µM
GI50 [3]: 1.61 µM
TGI [3]: > 12.2 µM
GI50 [4]: 0.862 µM
TGI [4]: 1.56 µM
GI50 [5]: 0.895 µM
TGI [5]: 2.12 µM
GI50 [6]: 1.66 µM
TGI [6]: 8.49 µM
GI50 [7]: 0.98 µM
GI50 [8]: 2.29 µM
TGI [8]: 14.8 µM
GI50 [9]: 2.03 µM
TGI [9]: 7.16 µM
GI50 [10]: 0.296 µM
TGI [10]: 0.95 µM
GI50 [11]: 0.02 µM
TGI [11]: 8.97 µM
GI50 [12]: 11.6 µM
TGI [12]: 28.1 µM
GI50 [13]: 1.38 µM
TGI [13]: 2.91 µM
GI50 [14]: 1.93 µM
TGI [14]: > 50 µM
GI50 [15]: 11.8 µM
TGI [15]: > 50 µM
GI50 [16]: 0.209 µM
TGI [16]: > 50 µM
GI50 [17]: 0.842 µM
TGI [17]: 2.54 µM
GI50 [18]: 0.0923 µM
TGI [18]: 0.17 µM
GI50 [19]: 0.136 µM
TGI [19]: 12 µM
GI50 [20]: 0.697 µM
TGI [20]: 1.47 µM
GI50 [21]: 1.1 µM
TGI [21]: 2.4 µM
GI50 [22]: 1.79 µM
TGI [22]: 11.1 µM
GI50 [23]: 3.66 µM
TGI [23]: > 50 µM
GI50 [24]: 0.583 µM
TGI [24]: 1.76 µM
GI50 [25]: 0.773 µM
TGI [25]: 1.44 µM
GI50 [26]: 1.19 µM
TGI [26]: 2.76 µM
GI50 [27]: 0.738 µM
TGI [27]: 1.4 µM
GI50 [28]: 10.9 µM
TGI [28]: 26.9 µM
GI50 [29]: 26.8 µM
TGI [29]: > 50 µM
GI50 [30]: 0.952 µM
TGI [30]: 1.95 µM
GI50 [31]: 0.529 µM
TGI [31]: 1.38 µM
GI50 [32]: 0.95 µM
TGI [32]: 1.91 µM
GI50 [33]: 0.0951 µM
TGI [33]: 0.177 µM
GI50 [34]: 8.38 µM
TGI [34]: 18 µM
GI50 [35]: 0.849 µM
TGI [35]: 1.58 µM
GI50 [36]: 23.6 µM
TGI [36]: > 50 µM

CN(/N=C\c1ccc2ccccc2c1)C1=NCCCN1
TGI [1]: 29.1 µM
TGI [2]: 28.8 µM
TGI [3]: 24.7 µM
TGI [4]: 35.9 µM
TGI [6]: 22.7 µM
TGI [37]: 48.6 µM
TGI [7]: 25.3 µM
TGI [8]: > 100 µM
TGI [9]: 53.8 µM
TGI [10]: 27.2 µM
TGI [11]: 28.9 µM
TGI [38]: 74.4 µM
TGI [39]: 37.4 µM
TGI [12]: 27.4 µM
TGI [40]: 14.5 µM
TGI [13]: 42.1 µM
TGI [14]: 31.1 µM
TGI [15]: 23.3 µM
TGI [16]: 34.2 µM
TGI [17]: 32.1 µM
TGI [18]: 21.6 µM
TGI [41]: 26.4 µM
TGI [42]: 26.4 µM
TGI [20]: 34.5 µM
TGI [21]: 30.8 µM
TGI [43]: 8.93 µM
TGI [22]: 40.4 µM
TGI [44]: > 100 µM
TGI [45]: 20.3 µM
TGI [23]: 30.3 µM
TGI [24]: 74.4 µM
TGI [46]: 54.1 µM
TGI [47]: > 100 µM
TGI [25]: > 100 µM
TGI [26]: > 100 µM
TGI [48]: 50.7 µM
TGI [28]: 35.4 µM
TGI [49]: 60.2 µM
TGI [50]: 26.8 µM
TGI [51]: 40.3 µM
TGI [29]: 35 µM
TGI [52]: 29.8 µM
TGI [30]: 24.6 µM
TGI [53]: 98.3 µM
TGI [54]: 91.2 µM
TGI [55]: > 100 µM
TGI [56]: 27.2 µM
TGI [57]: > 100 µM
TGI [32]: 34.2 µM
TGI [33]: 96.6 µM
TGI [34]: 23.6 µM
TGI [35]: 34.5 µM
TGI [36]: 25.2 µM

COc1ccc(-c2cc(-c3ccccc3)nc(NCCNc3ccnc4cc(Cl)ccc34)n2)cc1
GI50 [1]: 1.72 µM
TGI [1]: 3.35 µM
GI50 [2]: 1.63 µM
TGI [2]: 3.16 µM
GI50 [3]: 1.82 µM
TGI [3]: 3.55 µM
GI50 [4]: 1.7 µM
TGI [4]: 3.16 µM
GI50 [6]: 1.57 µM
TGI [6]: 2.96 µM
GI50 [37]: 0.306 µM
TGI [37]: 1.21 µM
GI50 [7]: 1.84 µM
TGI [7]: 3.83 µM
GI50 [8]: 1.77 µM
TGI [8]: 3.28 µM
GI50 [9]: 1.79 µM
TGI [9]: 3.59 µM
GI50 [38]: 0.591 µM
TGI [38]: 2.09 µM
GI50 [39]: 1.72 µM
TGI [39]: 3.62 µM
GI50 [12]: 1.87 µM
TGI [12]: 3.7 µM
GI50 [40]: 1.17 µM
TGI [40]: 2.57 µM
GI50 [13]: 1.81 µM
TGI [13]: 3.78 µM
GI50 [14]: 1.72 µM
TGI [14]: 3.43 µM
GI50 [15]: 1.46 µM
TGI [15]: 3.18 µM
GI50 [16]: 0.323 µM
TGI [16]: 1.03 µM
GI50 [17]: 1.84 µM
TGI [17]: 3.52 µM
GI50 [18]: 1.55 µM
TGI [18]: 3.26 µM
GI50 [41]: 1.7 µM
TGI [41]: 3.42 µM
GI50 [42]: 1.53 µM
TGI [42]: 3.42 µM
GI50 [20]: 1.81 µM
TGI [20]: 3.49 µM
GI50 [21]: 1.47 µM
TGI [21]: 3.01 µM
GI50 [22]: 1.96 µM
TGI [22]: 4.56 µM
GI50 [44]: 1.84 µM
TGI [44]: 3.7 µM
GI50 [45]: 1.92 µM
TGI [45]: 3.72 µM
GI50 [23]: 1.87 µM
TGI [23]: 3.8 µM
GI50 [24]: 1.71 µM
TGI [24]: 3.79 µM
GI50 [46]: 1.82 µM
TGI [46]: 3.39 µM
GI50 [47]: 1.93 µM
TGI [47]: 3.71 µM
GI50 [25]: 1.76 µM
TGI [25]: 3.3 µM
GI50 [49]: 1.78 µM
TGI [49]: 3.62 µM
GI50 [50]: 1.8 µM
TGI [50]: 3.49 µM
GI50 [51]: 1.86 µM
TGI [51]: 3.33 µM
GI50 [29]: 1.84 µM
TGI [29]: 3.43 µM
GI50 [52]: 1.73 µM
TGI [52]: 3.35 µM
GI50 [30]: 1.79 µM
TGI [30]: 3.3 µM
GI50 [53]: 1.78 µM
TGI [53]: 3.34 µM
GI50 [31]: 1.61 µM
TGI [31]: 3.3 µM
GI50 [58]: 1.77 µM
TGI [58]: 3.68 µM
GI50 [54]: 1.6 µM
TGI [54]: 3.05 µM
GI50 [55]: 0.435 µM
TGI [55]: > 100 µM
GI50 [56]: 1.32 µM
TGI [56]: 2.99 µM
GI50 [57]: 0.812 µM
TGI [57]: 2.61 µM
GI50 [32]: 1.82 µM
TGI [32]: 3.44 µM
GI50 [33]: 1.75 µM
TGI [33]: 3.38 µM
GI50 [34]: 1.92 µM
TGI [34]: 3.93 µM
GI50 [35]: 1.84 µM
TGI [35]: 3.52 µM
GI50 [36]: 1.42 µM
TGI [36]: 2.93 µM

— PubChem BioAssay (NCI)
